Results reported in patent US10172868B2, “Substituted quinazolines for inhibiting kinase activity” (NeuPharma, Inc., priority 2013, dated 2019).

Columns and labels:
EGFR (ErbB1) = EGFR (ErbB1) (Homo sapiens (Human), UniProt P00533); assay: Z'-LYTE kinase inhibition assay, EGFR; assay type: biochemical; details: for IC50: read-out: IC50 against EGFR; for inhibition at 0.041 µM: read-out: % inhibition against EGFR (Compound at 0.041 μM)
Method in brief: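 IC50 values derived from 10-point, 3-fold compound dilution series (1% DMSO final) using Z'-LYTE fluorescence readout after 60-min development. Reaction: EGFR (1.1-5.25 ng) with 2 μM peptide, 60 min at room temperature in HEPES pH 7.5 buffer containing MgCl2, MnCl2, EGTA, DTT and BRIJ-35.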

EGFR (ErbB1) T790M L858R = EGFR (ErbB1) T790M L858R (Homo sapiens (Human), UniProt P00533, L858R/T790M); assay: Z'-LYTE kinase inhibition assay, EGFR L858R/T790M; assay type: biochemical; details: for IC50: read-out: IC50 against EGFR L858R/T790M; for inhibition at 0.0137 µM: read-out: % inhibition against EGFR L858R/T790M (Compound at 0.0137 μM)
Method in brief: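 IC50 taken from 10-point, 3-fold serial dilutions tested in 1% DMSO. The mutant kinase and peptide were prepared in HEPES pH 6.5 buffer with BRIJ-35, MgCl2, EGTA and NaN3, then reacted with ATP for 1 h at room temperature. Development reagent was added for a further hour before the fluorescence readout.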

BTK = BTK (Homo sapiens (Human), UniProt Q06187); assay: Z'-LYTE kinase inhibition assay, BTK; assay type: biochemical; details: for IC50: read-out: IC50 against BTK
Experimental: Inhibitory activities of compounds against BTK, EGFR and EGFR mutants (EGFR L858R, EGFR T790M, EGFR L858R/T790M), FGFR1, FGFR2, JAK2, JAK3 and KDR were measured by Invitrogen using Z'-LYTE® Method as briefly described in the following.
Test Compounds are screened in 1% DMSO (final) in the well. For 10 point titrations, 3-fold serial dilutions are conducted from the starting concentration. All ATP Solutions are diluted to a 4× working concentration in Kinase Buffer (50 mM HEPES pH 7.5, 0.01% BRIJ-35, 10 mM MgCl2, 1 mM EGTA). Peptide/Kinase Mixtures are diluted to a 2× working concentration in the appropriate Kinase Buffers as described below.
(v) Peptide/Kinase Mixtures for Measurement of BTK:
The 2×BTK/Tyr 01 mixture is prepared in 50 mM HEPES pH 7.5. 0.01% BRIJ-35, 10 mM MgCl2, 1 mM EGTA.
The mixture is then incubated for another 60-minute at room temperature for development reaction. Finally fluorescence is read by plate reader.
To determine IC50 of a compound against EGFR, EGFR mutant and other kinases, a series of concentrations of the compound were tested for the inhibition. […] The scale utilized in Table 4 is as follows: +++ less than 100 nM, ++ 100-500 nM and + greater than 500 nM.

H1975 tumor xenografts = assay: Inhibition of tumor growth in H1975 xenograft model; assay type: in vivo, BALB/c female nude mice; details: 30 mg/kg, Intraperitoneal injection, QD x 14; for Tumor Volume Pre-treatment: baseline before treatment
Experimental: H1975 cells were implanted in BALB/c female nude mice and grown as tumor xenografts. When tumors achieved 120-200 mm^3, mice were assigned into treatment and control groups using randomized block design based upon their tumor volumes. Each group contained 6 tumor-bearing mice. Tumors were measured twice weekly in two dimensions using a caliper, and the tumor volume was calculated from two-dimensional measurements using the equation V=0.5×a×b^2 where a and b are the long and short diameters of the tumor, respectively. Relative tumor volume (RTV) was defined as TVt/TVi, the ratio of the volume on a given day (TVt) and the volume at the start of treatment (TVi). Relative tumor growth rate (T/C) was defined as RTVT/RTVC, the ratio of relative tumor volume of treatment group (RTVT) and relative tumor volume of control group (RTVC) on a given day.

A431 cells = assay: cells; details: Homo sapiens, A-431, 72 h, read-out: IC50 in A431 cells
Experimental: (§1) Taxol (as a positive control. Sigma) and compounds were dissolved in DMSO (Sigma), and the final concentration of DMSO in the medium was 1%. Tumor cells were plated in 96-well plates at densities of about 4000 cells/well of a 96-well plate and allowed to adhere/grow for 24 h. They were then treated with various concentrations of drug for 72 h, 3-(4,5-Dimethylthiazol-2-yl)-2,5-diphenyltetrazolium bromide (MTT, Sigma) was used to determine the number of viable cells at the time of compound addition and the number of cells remaining after 72 h compound exposure. The number of cells remaining after 72 h was compared to the number of viable cells at the time of compound addition by measuring the absorbance at 570 nm, allowing for the calculation of growth inhibition.
(§2) All concentrations of compounds were tested in triplicate and controls were averaged over 4 wells. IC50 was calculated by plotting the concentration of compound vs the percentage of inhibition in treated wells using GraphPad Prism 5.
(§3) The scale utilized in Tables 5 is as follows: +++ less than 100 nM; ++ between 100 nM and 500 nM; and + greater than 500 nM.

H3255 cells = assay: Inhibition of cancer cell growth, MTT assay, H3255; details: Homo sapiens, NCI-H3255, 72 h, read-out: IC50 in H3255 cells
Experimental: Inhibition of cell growth by compounds was measured using MTT assay (Mosmann, T., Journal of Immunological Methods, 1983, 65, 55-63). Tumor cell lines were purchased from ATCC (American Type Culture Collection, Manassas, Va.). All cell lines were maintained in RPMI 1640 (Hyclone) supplemented with 10% fetal bovine serum (FBS, Hyclone), glutamine (2 mM, Hyclone), and antibiotics (penicillin 100 U/mL and streptomycin 50 μg/mL) at 37° C. in a humidified atmosphere of 5% CO2 in air. Taxol (as a positive control. Sigma) and compounds were dissolved in DMSO (Sigma), and the final concentration of DMSO in the medium was 1%. Tumor cells were plated in 96-well plates at densities of about 4000 cells/well of a 96-well plate and allowed to adhere/grow for 24 h. They were then treated with various concentrations of drug for 72 h, 3-(4,5-Dimethylthiazol-2-yl)-2,5-diphenyltetrazolium bromide (MTT, Sigma) was used to determine the number of viable cells at the time of compound addition and the number of cells remaining after 72 h compound exposure. The number of cells remaining after 72 h was compared to the number of viable cells at the time of compound addition by measuring the absorbance at 570 nm, allowing for the calculation of growth inhibition.
as §2

H1975 cells = assay: Inhibition of cancer cell growth, MTT assay, H1975; details: Homo sapiens, NCI-H1975, 72 h, read-out: IC50 in H1975 cells
HCC827 cells = assay: cells; details: Homo sapiens, HCC827, 72 h, read-out: IC50 in HCC827 cells
Experimental: as §1, §2, §3

BTK, sequence (Q06187 whole entry): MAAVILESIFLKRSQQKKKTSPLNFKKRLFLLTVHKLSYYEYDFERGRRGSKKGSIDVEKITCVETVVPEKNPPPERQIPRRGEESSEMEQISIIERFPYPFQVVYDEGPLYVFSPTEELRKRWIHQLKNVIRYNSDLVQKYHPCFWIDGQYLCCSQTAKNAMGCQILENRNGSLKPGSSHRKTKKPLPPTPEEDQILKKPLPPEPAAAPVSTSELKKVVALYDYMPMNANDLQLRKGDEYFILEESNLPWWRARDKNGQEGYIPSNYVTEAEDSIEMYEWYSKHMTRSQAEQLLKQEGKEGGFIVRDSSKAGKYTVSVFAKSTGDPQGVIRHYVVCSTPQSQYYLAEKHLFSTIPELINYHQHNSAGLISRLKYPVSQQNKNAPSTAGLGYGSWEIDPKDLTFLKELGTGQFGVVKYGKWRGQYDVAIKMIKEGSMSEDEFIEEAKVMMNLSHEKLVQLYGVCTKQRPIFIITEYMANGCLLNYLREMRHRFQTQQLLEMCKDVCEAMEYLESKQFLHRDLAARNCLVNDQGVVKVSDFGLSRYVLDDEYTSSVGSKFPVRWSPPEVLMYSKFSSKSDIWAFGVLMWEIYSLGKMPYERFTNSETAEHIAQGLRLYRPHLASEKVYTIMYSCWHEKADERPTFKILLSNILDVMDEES
EGFR (ErbB1) T790M L858R, sequence (P00533 25-1210 T790M/L858R): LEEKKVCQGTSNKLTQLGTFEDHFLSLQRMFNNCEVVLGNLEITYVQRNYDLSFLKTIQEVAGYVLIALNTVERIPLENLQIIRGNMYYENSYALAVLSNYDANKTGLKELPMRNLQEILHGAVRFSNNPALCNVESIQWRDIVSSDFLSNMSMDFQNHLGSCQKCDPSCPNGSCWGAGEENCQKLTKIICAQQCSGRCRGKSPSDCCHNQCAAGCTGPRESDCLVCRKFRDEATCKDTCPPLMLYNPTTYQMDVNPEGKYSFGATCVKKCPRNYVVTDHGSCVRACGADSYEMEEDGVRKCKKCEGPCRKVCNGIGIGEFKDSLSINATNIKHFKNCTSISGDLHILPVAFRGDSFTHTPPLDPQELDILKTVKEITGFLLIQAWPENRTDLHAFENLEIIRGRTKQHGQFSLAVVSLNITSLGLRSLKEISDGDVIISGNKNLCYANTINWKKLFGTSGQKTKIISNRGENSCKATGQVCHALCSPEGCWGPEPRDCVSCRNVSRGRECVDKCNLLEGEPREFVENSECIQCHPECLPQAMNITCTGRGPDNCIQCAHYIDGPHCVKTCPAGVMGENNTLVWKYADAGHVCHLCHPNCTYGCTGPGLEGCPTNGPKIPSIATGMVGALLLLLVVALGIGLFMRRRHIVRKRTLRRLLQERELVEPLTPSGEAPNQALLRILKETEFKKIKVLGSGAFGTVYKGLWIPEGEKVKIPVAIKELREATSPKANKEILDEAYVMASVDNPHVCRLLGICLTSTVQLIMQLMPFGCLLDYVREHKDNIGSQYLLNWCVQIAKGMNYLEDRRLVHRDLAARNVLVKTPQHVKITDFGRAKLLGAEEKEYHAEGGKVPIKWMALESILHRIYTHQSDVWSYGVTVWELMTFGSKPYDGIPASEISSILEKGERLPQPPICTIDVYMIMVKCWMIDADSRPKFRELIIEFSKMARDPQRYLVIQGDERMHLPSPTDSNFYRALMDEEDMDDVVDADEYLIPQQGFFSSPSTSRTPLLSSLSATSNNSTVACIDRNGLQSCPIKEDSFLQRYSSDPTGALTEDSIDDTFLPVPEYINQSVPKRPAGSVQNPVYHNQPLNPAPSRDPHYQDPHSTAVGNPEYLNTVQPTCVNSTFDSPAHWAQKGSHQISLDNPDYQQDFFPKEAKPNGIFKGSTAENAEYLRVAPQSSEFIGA
EGFR (ErbB1), sequence (P00533 25-1210): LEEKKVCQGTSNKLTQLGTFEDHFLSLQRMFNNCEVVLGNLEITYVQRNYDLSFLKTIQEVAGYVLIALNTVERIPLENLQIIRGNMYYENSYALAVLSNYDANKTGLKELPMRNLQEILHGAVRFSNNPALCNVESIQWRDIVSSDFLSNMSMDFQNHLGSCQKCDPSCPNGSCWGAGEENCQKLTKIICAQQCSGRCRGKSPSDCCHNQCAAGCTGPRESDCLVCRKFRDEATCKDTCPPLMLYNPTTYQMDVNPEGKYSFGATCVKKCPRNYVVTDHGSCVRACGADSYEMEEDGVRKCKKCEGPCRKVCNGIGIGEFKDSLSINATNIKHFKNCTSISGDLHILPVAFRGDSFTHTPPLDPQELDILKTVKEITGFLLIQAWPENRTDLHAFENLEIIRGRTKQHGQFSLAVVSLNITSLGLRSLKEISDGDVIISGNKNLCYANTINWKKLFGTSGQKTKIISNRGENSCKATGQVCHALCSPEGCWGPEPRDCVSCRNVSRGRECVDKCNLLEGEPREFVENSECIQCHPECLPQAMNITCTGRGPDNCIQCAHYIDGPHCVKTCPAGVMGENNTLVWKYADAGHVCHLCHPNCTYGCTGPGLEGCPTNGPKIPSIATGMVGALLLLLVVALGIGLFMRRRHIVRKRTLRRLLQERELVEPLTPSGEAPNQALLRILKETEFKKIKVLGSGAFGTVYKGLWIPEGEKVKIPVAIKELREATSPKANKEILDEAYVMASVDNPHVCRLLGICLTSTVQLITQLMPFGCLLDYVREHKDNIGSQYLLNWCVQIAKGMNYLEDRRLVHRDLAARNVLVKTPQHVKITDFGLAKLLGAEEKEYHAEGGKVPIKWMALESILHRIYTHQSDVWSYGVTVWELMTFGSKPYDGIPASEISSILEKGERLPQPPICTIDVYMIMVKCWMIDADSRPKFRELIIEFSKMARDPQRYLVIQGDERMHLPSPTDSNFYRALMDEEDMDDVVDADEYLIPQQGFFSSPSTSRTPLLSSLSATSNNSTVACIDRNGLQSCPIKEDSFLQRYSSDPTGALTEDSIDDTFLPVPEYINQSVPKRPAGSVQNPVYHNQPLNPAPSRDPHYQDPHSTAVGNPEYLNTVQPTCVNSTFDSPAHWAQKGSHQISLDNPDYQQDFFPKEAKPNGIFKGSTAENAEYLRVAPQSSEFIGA

IC50 (EGFR (ErbB1) T790M L858R) [µM] | IC50 (A431 cells) [µM] | IC50 (H3255 cells) [µM] | IC50 (H1975 cells) [µM] | inhibition at 0.041 µM (EGFR (ErbB1)) [%] | inhibition at 0.0137 µM (EGFR (ErbB1) T790M L858R) [%] | inhibition at 0.041 µM (BTK; compound at 0.041 μM, read-out: % inhibition against BTK) [%] | IC50 (HCC827 cells) [µM] | inhibition at 1 µM (EGFR (ErbB1); read-out: % inhibition against EGFR (Compound at 1 μM)) [%] | inhibition at 1 µM (EGFR (ErbB1) T790M L858R; read-out: % inhibition against EGFR L858R/T790M (Compound at 1 μM)) [%] | Structure (SMILES) | IC50 (EGFR (ErbB1)) [µM] | IC50 (BTK) [µM] | T/C (relative tumor growth rate) (H1975 tumor xenografts) [%] | Tumor Volume Post-treatment (H1975 tumor xenografts) [mm^3] | Tumor Volume Pre-treatment (H1975 tumor xenografts) [mm^3]
 | 0.1 to 0.5 | 0.1 to 0.5 | < 0.1 | < 50 | > 50 |  |  |  |  | C=CC(=O)Nc1cccc(-c2cccc3cnc(Nc4ccc(N5CCN(CCOC)CC5)cc4)nc23)c1 [Example C152, N-(3-(2-((4-(4-(2-methoxyethyl)piperazin-1-yl)phenyl)amino)quinazolin-8-yl)phenyl)acrylamide] |  |  |  |  | 
< 0.1 | < 0.1 | 0.1 to 0.5 | < 0.1 | > 50 | > 50 |  |  |  |  | C=CC(=O)Nc1cccc(-c2cccc3cnc(Nc4ccc(NC5CCN(CCO)CC5)cc4)nc23)c1 [Example C139, N-(3-(2-((4-((1-(2-hydroxyethyl)piperidin-4-yl)amino)phenyl)amino)quinazolin-8-yl)phenyl)acrylamide] |  |  |  |  | 
< 0.1 | < 0.1 | 0.1 to 0.5 | < 0.1 | > 50 | > 50 | > 50 |  |  |  | C=CC(=O)Nc1cccc(-c2cccc3cnc(Nc4ccc(NC5CCN(C)CC5)cc4)nc23)c1 [Example C118, N-(3-(2-((4-((1-methylpiperidin-4-yl)amino)phenyl)amino)quinazolin-8-yl)phenyl)acrylamide] |  |  |  |  | 
< 0.1 | < 0.1 | 0.1 to 0.5 | < 0.1 | > 50 | > 50 |  |  |  |  | C=CC(=O)Nc1cccc(-c2cccc3cnc(Nc4ccc(N[C@H]5CCN(C)C5)cc4)nc23)c1 [Example C127, (S)-N-(3-(2-((4-((1-methylpyrrolidin-3-yl)amino)phenyl)amino)quinazolin-8-yl)phenyl)acrylamide] |  |  |  |  | 
 |  | > 0.5 | 0.1 to 0.5 |  | < 50 |  |  |  |  | C=CC(=O)Nc1cccc(-c2cccc3cnc(Nc4cc(F)c(N5CCN(CCOC)CC5)cc4F)nc23)c1 [Example C161, N-(3-(2-((2,5-difluoro-4-(4-(2-methoxyethyl)piperazin-1-yl)phenyl)amino)quinazolin-8-yl)phenyl)acrylamide] |  |  |  |  | 
< 0.1 | > 0.5 | > 0.5 | < 0.1 | > 50 | > 50 |  |  |  |  | C=CC(=O)Nc1cccc(-c2cccc3cnc(Nc4ccc(NC5CCN(C)CC5)cc4F)nc23)c1 [Example C140, N-(3-(2-((2-fluoro-4-((1-methylpiperidin-4-yl)amino)phenyl)amino)quinazolin-8-yl)phenyl)acrylamide] |  |  |  |  | 
< 0.1 | < 0.1 | 0.1 to 0.5 | < 0.1 | < 50 | > 50 |  |  |  |  | C=CC(=O)Nc1cccc(-c2cccc3cnc(Nc4ccc(NC5CN(CCF)C5)cc4)nc23)c1 [Example C103, N-(3-(2-((4-((1-(2-fluoroethyl)azetidin-3-yl)amino)phenyl)amino)quinazolin-8-yl)phenyl)acrylamide] |  |  | 35.8 | 748.7 | 150.9
< 0.1 | 0.1 to 0.5 | > 0.5 | < 0.1 | > 50 | > 50 |  |  |  |  | C=CC(=O)Nc1cccc(-c2cccc3cnc(Nc4ccc(OC5CCN(CCO)CC5)cc4)nc23)c1 [Example C137, N-(3-(2-((4-((1-(2-hydroxyethyl)piperidin-4-yl)oxy)phenyl)amino)quinazolin-8-yl)phenyl)acrylamide] |  |  |  |  | 
< 0.1 | 0.1 to 0.5 | > 0.5 | < 0.1 | < 50 | > 50 |  | < 0.1 |  |  | C=CC(=O)Nc1cccc(-c2cccc3cnc(Nc4ccc(N5CCN(CC(C)(C)O)CC5)cc4)nc23)c1 [Example C145, N-(3-(2-((4-(4-(2-hydroxy-2-methylpropyl)piperazin-1-yl)phenyl)amino)quinazolin-8-yl)phenyl)acrylamide] |  |  |  |  | 
 | 0.1 to 0.5 | > 0.5 | 0.1 to 0.5 |  |  |  | < 0.1 | > 50 | > 50 | C=CC(=O)Nc1cccc(-c2cccc3cnc(Nc4ccc(N5CCN(CC)CC5)cc4)nc23)c1 [Example C029, N-(3-(2-((4-(4-ethylpiperazin-1-yl)phenyl)amino)quinazolin-8-yl)phenyl)acrylamide] |  |  |  |  | 
< 0.1 | 0.1 to 0.5 | 0.1 to 0.5 | < 0.1 | > 50 | > 50 |  | < 0.1 |  |  | C=CC(=O)Nc1cccc(-c2cccc3cnc(Nc4ccc(OC5CCN(C)CC5)cc4F)nc23)c1 [Example C141, N-(3-(2-((2-fluoro-4-((1-methylpiperidin-4-yl)oxy)phenyl)amino)quinazolin-8-yl)phenyl)acrylamide] |  |  |  |  | 

Structure (SMILES) | IC50 (EGFR (ErbB1) T790M L858R) [µM] | IC50 (A431 cells) [µM] | IC50 (H3255 cells) [µM] | IC50 (H1975 cells) [µM] | inhibition at 0.041 µM (EGFR (ErbB1)) [%] | inhibition at 0.0137 µM (EGFR (ErbB1) T790M L858R) [%] | inhibition at 0.041 µM (BTK; compound at 0.041 μM, read-out: % inhibition against BTK) [%] | IC50 (HCC827 cells) [µM] | inhibition at 1 µM (EGFR (ErbB1); read-out: % inhibition against EGFR (Compound at 1 μM)) [%] | inhibition at 1 µM (EGFR (ErbB1) T790M L858R; read-out: % inhibition against EGFR L858R/T790M (Compound at 1 μM)) [%] | IC50 (EGFR (ErbB1)) [µM] | IC50 (BTK) [µM] | T/C (relative tumor growth rate) (H1975 tumor xenografts) [%] | Tumor Volume Post-treatment (H1975 tumor xenografts) [mm^3] | Tumor Volume Pre-treatment (H1975 tumor xenografts) [mm^3]
C=CC(=O)Nc1cccc(-c2cccc3cnc(Nc4ccc(OCCOC)cc4)nc23)c1 [Example C107, N-(3-(2-((4-(2-methoxyethoxy)phenyl)amino)quinazolin-8-yl)phenyl)acrylamide] | < 0.1 | < 0.1 | 0.1 to 0.5 | < 0.1 |  |  |  |  |  |  | > 0.5 | < 0.1 | 63.6 | 1341.7 | 150.6
C=CC(=O)Nc1cccc(-c2cccc3cnc(Nc4ccc(NC5CCN(C)CC5F)cc4)nc23)c1 (stereo not shown) [Example C105, N-(3-(2-((4-((3-fluoro-1-methylpiperidin-4-yl)amino)phenyl)amino)quinazolin-8-yl)phenyl)acrylamide] | < 0.1 | 0.1 to 0.5 | < 0.1 | < 0.1 | < 50 |  |  | < 0.1 |  |  | < 0.1 | < 0.1 |  |  | 
C=CC(=O)Nc1cccc(-c2cccc3cnc(Nc4ccc(N5CCN(C)CC5=O)cc4)nc23)c1 [Example C106, N-(3-(2-((4-(4-methyl-2-oxopiperazin-1-yl)phenyl)amino)quinazolin-8-yl)phenyl)acrylamide] | < 0.1 | < 0.1 | 0.1 to 0.5 | < 0.1 |  |  |  |  |  |  | > 0.5 | < 0.1 |  |  | 
C=CC(=O)Nc1cccc(-c2cccc3cnc(Nc4ccc(OC5CCN(C)CC5F)cc4)nc23)c1 (stereo not shown) [Example C079, N-(3-(2-((4-((3-fluoro-1-methylpiperidin-4-yl)oxy)phenyl)amino)quinazolin-8-yl)phenyl)acrylamide] | < 0.1 | 0.1 to 0.5 | 0.1 to 0.5 | < 0.1 | < 50 |  |  |  |  |  |  | < 0.1 |  |  | 
